The supplement of paper PMC13380429

Legend:
Details in all cases: 72 h
Calu-3 [1] = experiment: drug sensitivity score (DSS) for viability; higher = more toxic; extreme values may be limits of the assay
Vero E6 [2] = experiment: as above
U2OS [3] = experiment: as above
HepG2 [4] = experiment: as above
Caco-2 [5] = experiment: as above
Calu-3 [6] = experiment: relative viability EC50 (midpoint between 100% and the lowest measured viability); higher = less toxic
Vero E6 [7] = experiment: as above
U2OS [8] = experiment: as above
HepG2 [9] = experiment: as above
Caco-2 [10] = experiment: as above
Calu-3 [11] = experiment: cell viability relative to DMSO; higher = less toxic
Vero E6 [12] = experiment: as above
U2OS [13] = experiment: as above
HepG2 [14] = experiment: as above
Caco-2 [15] = experiment: as above

Row | Structure (SMILES) | drug sensitivity score (Calu-3 [1]) | drug sensitivity score (Vero E6 [2]) | drug sensitivity score (U2OS [3]) | drug sensitivity score (HepG2 [4]) | drug sensitivity score (Caco-2 [5]) | relative viability EC50 (Calu-3 [6]) [µM] | relative viability EC50 (Vero E6 [7]) [µM] | relative viability EC50 (U2OS [8]) [µM] | relative viability EC50 (HepG2 [9]) [µM] | relative viability EC50 (Caco-2 [10]) [µM] | cell viability (Calu-3 [11]; 1 nM) [%] | cell viability (Calu-3 [11]; 10 nM) [%] | cell viability (Calu-3 [11]; 100 nM) [%] | cell viability (Calu-3 [11]; 1000 nM) [%] | cell viability (Calu-3 [11]; 10000 nM) [%] | cell viability (Vero E6 [12]; 1 nM) [%] | cell viability (Vero E6 [12]; 10 nM) [%] | cell viability (Vero E6 [12]; 100 nM) [%] | cell viability (Vero E6 [12]; 1000 nM) [%] | cell viability (Vero E6 [12]; 10000 nM) [%] | cell viability (U2OS [13]; 1 nM) [%] | cell viability (U2OS [13]; 10 nM) [%] | cell viability (U2OS [13]; 100 nM) [%] | cell viability (U2OS [13]; 1000 nM) [%] | cell viability (U2OS [13]; 10000 nM) [%] | cell viability (HepG2 [14]; 1 nM) [%] | cell viability (HepG2 [14]; 10 nM) [%] | cell viability (HepG2 [14]; 100 nM) [%] | cell viability (HepG2 [14]; 1000 nM) [%] | cell viability (HepG2 [14]; 10000 nM) [%] | cell viability (Caco-2 [15]; 1 nM) [%] | cell viability (Caco-2 [15]; 10 nM) [%] | cell viability (Caco-2 [15]; 100 nM) [%] | cell viability (Caco-2 [15]; 1000 nM) [%] | cell viability (Caco-2 [15]; 10000 nM) [%]
1 | CS(=O)(=O)Oc1ccc2c(NC(N)=O)c(C(=O)c3ccc(Cl)cc3Cl)oc2c1 [lirimilast] | 0 | 0 | 0 | 0 | 0 | > 10 | > 10 | > 10 | > 10 | > 10 | 98.8 | 106 | 91.4 | 101 | 104 | 98.6 | 94.7 | 97 | 84.4 | 99.6 | 95.5 | 99 | 97.9 | 107 | 102 | 94.3 | 89.7 | 106 | 94.7 | 95.9 | 98.5 | 96.3 | 102 | 108 | 110
2 | C=CC(=O)Nc1cccc(Nc2nc(Nc3ccc(OCCOC)cc3)ncc2F)c1 [AVL-292] | 4.4 | 7.7 | 6.4 | 6.8 | 7.6 | 2.87 | 1.74 | 2.39 | 1.47 | 1.47 | 100 | 106 | 92.2 | 97.2 | 27.2 | 96.9 | 94.5 | 94.9 | 82.5 | 11.9 | 100 | 100 | 94.9 | 91.5 | 9 | 101 | 95.7 | 101 | 80.5 | 29.7 | 85.2 | 90.8 | 102 | 78.3 | 21.5
3 | CN(CCOc1ccc(NS(C)(=O)=O)cc1)CCc1ccc(NS(C)(=O)=O)cc1 [dofetilide] | 0 | 0 | 0 | 0 | 0 | > 10 | > 10 | > 10 | > 10 | > 10 | 111 | 90.4 | 101 | 98.6 | 104 | 92.6 | 104 | 90.2 | 98.1 | 110 | 100 | 102 | 102 | 96.6 | 97 | 100 | 102 | 89.5 | 117 | 118 | 91.1 | 99.9 | 99.1 | 97.1 | 102
4 | CN(C)C(=N)NCCC[C@H](N)C(=O)O [asymmetrical-dimethylarginine] | 0 | 0 | 0 | 0 | 0 | > 10 | > 10 | > 10 | > 10 | > 10 | 107 | 99.9 | 112 | 102 | 97.9 | 97.4 | 101 | 96.5 | 101 | 90.7 | 100 | 93.2 | 96.2 | 93.5 | 97 | 86.7 | 96.8 | 95.1 | 105 | 101 | 101 | 99.4 | 97.9 | 93.3 | 101
5 | CCCC(=O)Nc1ncnc2c1ncn2[C@@H]1O[C@@H]2COP(=O)(O)O[C@H]2[C@H]1OC(=O)CCC [bucladesine] | 0 | 0 | 0 | 0 | 0 | > 10 | > 10 | > 10 | > 10 | > 10 | 100 | 92.9 | 92.9 | 94.3 | 108 | 98.5 | 104 | 97.8 | 104 | 95.2 | 105 | 94.8 | 103 | 97.2 | 100 | 101 | 101 | 93.9 | 99 | 96 | 110 | 101 | 107 | 93.3 | 91.9
6 | Nc1nc(NC2CC2)cc(-c2cccc(Cl)c2Cl)n1 [TH-588] | 0 | 0 | 0 | 0 | 0 | > 10 | > 10 | > 10 | > 10 | > 10 | 95.5 | 94 | 101 | 104 | 98.5 | 100 | 104 | 98.1 | 101 | 89.6 | 96.3 | 99.2 | 105 | 97.9 | 98.6 | 95.4 | 97.1 | 102 | 101 | 95.4 | 92.1 | 91.1 | 96.4 | 93.7 | 96.8
7 | COc1cc(N2CCC(N(C)C)CC2)ccc1Nc1ncc(Cl)c(Nc2ccccc2P(C)(C)=O)n1 | 10.9 | 4.1 | 8.2 | 9.2 | 5.6 | 0.943 | 3.17 | 1.9 | 1.11 | 1.37 | 97.9 | 97.2 | 93.8 | 51.7 | 5.6 | 101 | 105 | 103 | 100 | 25.6 | 98.2 | 100 | 102 | 83.4 | 0.5 | 105 | 107 | 92.9 | 61.3 | 14.4 | 93.9 | 95.2 | 94.8 | 79.4 | 41.9
